Experimental data from US8513260B2, “Pyrazinylpyrazoles” (Bayer CropScience AG, priority 2009, dated 2013).

Each molecule was assayed on unfed adult fleas (Ctenocephalides felis) (assay: Ctenocephalides felis test (CTECFE)). Details: 100 ppm in citrated cow's blood; after 2 days.
Assay type: in vivo
Protocol: Ctenocephalides felis Test ([…]) Solvent: 1 part by weight of dimethyl sulphoxide For the purpose of preparing an appropriate active ingredient formulation, 10 mg of active ingredient are mixed with 0.5 ml of dimethyl sulphoxide. A portion of the concentrate is diluted with citrated cow's blood and the desired concentration is established. About 20 unfed adult fleas (Ctenocephalides felis) are introduced into a chamber closed at the top and bottom with gauze. A metal cylinder, the bottom of which is closed with Parafilm, is placed onto the chamber. The cylinder contains the blood/active ingredient preparation, which can be imbibed by the fleas through the Parafilm membrane. After 2 days, the kill in % is determined. 100% means that all fleas have been killed; 0% means that none of the fleas have been killed.

SMILES | efficacy (kill)
COc1nccnc1-n1nc(C(F)(F)Cl)c(-c2cc(Cl)cc(C(F)(F)F)c2)c1N [Ex. 17] | 100%
COc1nccnc1-n1nc(C(F)(F)C(F)(F)OC)c(-c2cc(Cl)cc(C(F)(F)F)c2)c1N [Ex. 47] | 100%
COc1nccnc1-n1nc(C(F)(F)F)c(-c2cc(Br)c3c(c2)OCCO3)c1N [Ex. 132] | 100%
COc1nccnc1-n1nc(C(F)(F)F)c(-c2cc(Cl)c3c(c2)OCCO3)c1N [Ex. 133] | 100%

These molecules were tested on green peach aphid (Myzus persicae) (assay: Myzus test (MYZUPE spray treatment)). Details: 500 g/ha, Chinese cabbage discs, after 6 days.
Assay type: in vivo
Protocol: Myzus Test (MYZUPE Spray Treatment) Solvent: 78 parts by weight of acetone • • 1.5 parts by weight of dimethylformamide Emulsifier: 0.5 part by weight of alkylaryl polyglycol ether To prepare an appropriate active ingredient preparation, 1 part by weight of active ingredient is mixed with the stated amounts of solvent and emulsifier, and the concentrate is diluted with emulsifier-containing water to the desired concentration. Discs of Chinese cabbage (Brassica pekinensis) infested by all stages of the green peach aphid (Myzus persicae) are sprayed with an active ingredient preparation of the desired concentration. After 6 days, the efficacy in % is determined. 100% means that all of the aphids have been destroyed; 0% means that none of the aphids have been destroyed.

SMILES | efficacy
C=Cc1nn(-c2nccnc2OC)c(N)c1-c1cc(Cl)cc(Cl)c1 [Ex. 8] | 100%
COc1nccnc1-n1nc(C(F)(F)Cl)c(-c2cc(Cl)cc(C(F)(F)F)c2)c1N [Ex. 17] | 100%
COc1nccnc1-n1nc(C(F)(F)F)c(-c2ccc(Cl)c(C(F)(F)F)c2)c1N [Ex. 18] | 90%
COc1nccnc1-n1nc(C(C)(F)F)c(-c2ccc(Cl)c(C(F)(F)F)c2)c1N [Ex. 20] | 100%
COc1nccnc1-n1nc(C(F)(F)C(F)(F)OC)c(-c2cc(Cl)cc(C(F)(F)F)c2)c1N [Ex. 47] | 80%

The molecules below were run on red spider mite (Tetranychus urticae) (assay: Tetranychus test, OP-resistant (TETRUR spray treatment)). Details: 100 g/ha, bean leaf discs, after 6 days.
Assay type: in vivo
Protocol: Tetranychus Test, OP-Resistant (TETRUR Spray Treatment)
Solvent: 78.0 parts by weight of acetone • • 1.5 parts by weight of dimethylformamide
Emulsifier: 0.5 part by weight of alkylaryl polyglycol ether
To prepare an appropriate active ingredient preparation, 1 part by weight of active ingredient is mixed with the stated amounts of solvent and emulsifier, and the concentrate is diluted with emulsifier-containing water to the desired concentration. Discs of bean leaves (Phaseolus vulgaris) infested by all stages of the red spider mite (Tetranychus urticae) are sprayed with an active ingredient preparation of the desired concentration. After 6 days, the efficacy in % is determined. 100% means that all spider mites have been killed; 0% means that none of the spider mites have been killed.

SMILES | efficacy
COc1nccnc1-n1nc(C(F)(F)F)c(-c2cc(Cl)c3c(c2)OCCO3)c1N [Ex. 133] | 90%

Same assay, conditions: 500 g/ha, bean leaf discs, after 6 days

SMILES | efficacy
COc1nccnc1-n1nc(C(F)(F)Cl)c(-c2cc(Cl)cc(C(F)(F)F)c2)c1N [Ex. 17] | 100%
COc1nccnc1-n1nc(C(F)(F)F)c(-c2ccc(Cl)c(C(F)(F)F)c2)c1N [Ex. 18] | 100%
COc1nccnc1-n1nc(C(C)(F)F)c(-c2ccc(Cl)c(C(F)(F)F)c2)c1N [Ex. 20] | 100%
COc1nccnc1-n1nc(C(F)(F)C(F)(F)OC)c(-c2cc(Cl)cc(C(F)(F)F)c2)c1N [Ex. 47] | 100%
COc1nccnc1-n1nc(C(F)(F)F)c(-c2cc(Br)c3c(c2)OCCO3)c1N [Ex. 132] | 80%

Each molecule was assayed on larvae of the mustard beetle (Phaedon cochleariae) (assay: Phaedon test (PHAECO spray treatment)). Details: 500 g/ha, Chinese cabbage discs, after 7 days.
Assay type: in vivo
Protocol: Phaedon Test ([…] Spray Treatment) Solvent: 78.0 parts by weight of acetone • • 1.5 parts by weight of dimethylformamide Emulsifier: 0.5 part by weight of alkylaryl polyglycol ether To prepare an appropriate active ingredient preparation, 1 part by weight of active ingredient is mixed with the stated amounts of solvent and emulsifier, and the concentrate is diluted with emulsifier-containing water to the desired concentration. Discs of Chinese cabbage (Brassica pekinensis) are sprayed with an active ingredient preparation of the desired concentration and, after drying, populated with larvae of the mustard beetle (Phaedon cochleariae). After 7 days, the efficacy in % is determined. 100% means that all beetle larvae have been killed; 0% means that none of the beetle larvae have been killed.

SMILES | efficacy
COc1nccnc1-n1nc(C(F)(F)Cl)c(-c2cc(Cl)cc(C(F)(F)F)c2)c1N [Ex. 17] | 100%
COc1nccnc1-n1nc(C(F)(F)F)c(-c2ccc(Cl)c(C(F)(F)F)c2)c1N [Ex. 18] | 100%
COc1nccnc1-n1nc(C(C)(F)F)c(-c2ccc(Cl)c(C(F)(F)F)c2)c1N [Ex. 20] | 100%
COc1nccnc1-n1nc(C(F)(F)C(F)(F)OC)c(-c2cc(Cl)cc(C(F)(F)F)c2)c1N [Ex. 47] | 100%
COc1nccnc1-n1nc(C(F)(F)F)c(-c2cc(Br)c3c(c2)OCCO3)c1N [Ex. 132] | 100%
COc1nccnc1-n1nc(C(F)(F)F)c(-c2cc(Cl)c3c(c2)OCCO3)c1N [Ex. 133] | 100%

What follows are molecules tested on adult engorged Boophilus microplus females of the SP-resistant Parkhurst strain (assay: Boophilus microplus (dip)). Details: 100 ppm, after 7 days, laying of fertile eggs.
Assay type: in vivo
Protocol: Boophilus microplus (dip)
Test animals: adult engorged Boophilus microplus females of the SP-resistant Parkhurst strain
Solvent: dimethyl sulphoxide
10 mg of active ingredient are dissolved in 0.5 ml of dimethyl sulphoxide. For the purpose of preparing a suitable formulation, the active ingredient solution is diluted with water to the concentration desired in each case. This active ingredient preparation is pipetted into tubes. 8-10 ticks are transferred into a further tube with holes. The tube is immersed into the active ingredient formulation, and all ticks are completely wetted. After the liquid has run out, the ticks are transferred onto filter discs in plastic dishes and stored in a climate-controlled room. The activity is assessed after 7 days by laying of fertile eggs. Eggs whose fertility is not outwardly visible are stored in glass tubes in a climate-controlled cabinet until the larvae hatch. Efficacy of 100% means that none of the ticks has laid any fertile eggs.

SMILES | efficacy
C=Cc1nn(-c2nccnc2OC)c(N)c1-c1cc(Cl)cc(Cl)c1 [Ex. 8] | 90%
COc1nccnc1-n1nc(C(F)(F)Cl)c(-c2cc(Cl)cc(C(F)(F)F)c2)c1N [Ex. 17] | 100%
COc1nccnc1-n1nc(C(F)(F)F)c(-c2ccc(Cl)c(C(F)(F)F)c2)c1N [Ex. 18] | 100%
COc1nccnc1-n1nc(C(C)(F)F)c(-c2ccc(Cl)c(C(F)(F)F)c2)c1N [Ex. 20] | 100%
COc1nccnc1-n1nc(C(F)(F)C(F)(F)OC)c(-c2cc(Cl)cc(C(F)(F)F)c2)c1N [Ex. 47] | 100%
COc1nccnc1-n1nc(C(F)(F)F)c(-c2cc(Br)c3c(c2)OCCO3)c1N [Ex. 132] | 100%
COc1nccnc1-n1nc(C(F)(F)F)c(-c2cc(Cl)c3c(c2)OCCO3)c1N [Ex. 133] | 95%

What follows are molecules tested on caterpillars of the armyworm (Spodoptera frugiperda) (assay: Spodoptera frugiperda test (SPODFR spray treatment)). Details: 500 g/ha, maize leaf discs, after 7 days.
Assay type: in vivo
Protocol: Spodoptera frugiperda Test (SPODFR Spray Treatment) Solvent: 78.0 parts by weight of acetone • • 1.5 parts by weight of dimethylformamide Emulsifier: 0.5 part by weight of alkylaryl polyglycol ether To prepare an appropriate active ingredient preparation, 1 part by weight of active ingredient is mixed with the stated amounts of solvent and emulsifier, and the concentrate is diluted with emulsifier-containing water to the desired concentration. Discs of maize leaves (Zea mays) are sprayed with an active ingredient preparation of the desired concentration and, after drying, populated with caterpillars of the armyworm (Spodoptera frugiperda). After 7 days, the efficacy in % is determined. 100% means that all caterpillars have been killed; 0% means that none of the caterpillars have been killed.

SMILES | efficacy
COc1nccnc1-n1nc(C(F)(F)Cl)c(-c2cc(Cl)cc(C(F)(F)F)c2)c1N [Ex. 17] | 100%
COc1nccnc1-n1nc(C(F)(F)F)c(-c2ccc(Cl)c(C(F)(F)F)c2)c1N [Ex. 18] | 83%
COc1nccnc1-n1nc(C(C)(F)F)c(-c2ccc(Cl)c(C(F)(F)F)c2)c1N [Ex. 20] | 100%
COc1nccnc1-n1nc(C(F)(F)C(F)(F)OC)c(-c2cc(Cl)cc(C(F)(F)F)c2)c1N [Ex. 47] | 100%
COc1nccnc1-n1nc(C(F)(F)F)c(-c2cc(Br)c3c(c2)OCCO3)c1N [Ex. 132] | 100%
COc1nccnc1-n1nc(C(F)(F)F)c(-c2cc(Cl)c3c(c2)OCCO3)c1N [Ex. 133] | 100%

The molecules below were run on adult Musca domestica (assay: Musca domestica test). Details: 20 ppm; after 2 days.
Assay type: in vivo
Protocol: Musca domestica Test Solvent: dimethyl sulphoxide To prepare an appropriate active ingredient formulation, 10 mg of active ingredient are mixed with 0.5 ml of dimethyl sulphoxide and the concentrate is diluted with water to the desired concentration. Vessels containing a sponge treated with the active ingredient preparation of the desired concentration are populated with adult Musca domestica. After 2 days, the kill in % is determined. 100% means that all of the flies have been killed; 0% means that none of the flies have been killed.

SMILES | efficacy (kill)
COc1nccnc1-n1nc(C(F)(F)F)c(-c2cc(Cl)c3c(c2)OCCO3)c1N [Ex. 133] | 80%

Same assay, conditions: 100 ppm; after 2 days

SMILES | efficacy (kill)
COc1nccnc1-n1nc(C(F)(F)Cl)c(-c2cc(Cl)cc(C(F)(F)F)c2)c1N [Ex. 17] | 100%
COc1nccnc1-n1nc(C(F)(F)C(F)(F)OC)c(-c2cc(Cl)cc(C(F)(F)F)c2)c1N [Ex. 47] | 80%
COc1nccnc1-n1nc(C(F)(F)F)c(-c2cc(Br)c3c(c2)OCCO3)c1N [Ex. 132] | 80%

These molecules were tested on Boophilus microplus (assay: Boophilus microplus test (BOOPMI injection)). Details: 20 μg animal; injection into the abdomen; after 7 days, laying of fertile eggs.
Assay type: in vivo
Protocol: Boophilus microplus Test (BOOPMI Injection) Solvent: dimethyl sulphoxide To prepare an appropriate active ingredient formulation, 10 mg of active ingredient are mixed with 0.5 ml of solvent and the concentrate is diluted with solvent to the desired concentration. The active ingredient solution is injected into the abdomen (Boophilus microplus), and the animals are transferred into dishes and stored in a climate-controlled room. The efficacy is assessed by laying of fertile eggs. After 7 days, the efficacy in % is determined. 100% means that none of the ticks has laid any fertile eggs.

SMILES | efficacy
C=Cc1nn(-c2nccnc2OC)c(N)c1-c1cc(Cl)cc(Cl)c1 [Ex. 8] | 100%
COc1nccnc1-n1nc(C(F)(F)Cl)c(-c2cc(Cl)cc(C(F)(F)F)c2)c1N [Ex. 17] | 100%
COc1nccnc1-n1nc(C(F)(F)F)c(-c2ccc(Cl)c(C(F)(F)F)c2)c1N [Ex. 18] | 100%
COc1nccnc1-n1nc(C(C)(F)F)c(-c2ccc(Cl)c(C(F)(F)F)c2)c1N [Ex. 20] | 100%
COc1nccnc1-n1nc(C(F)(F)C(F)(F)OC)c(-c2cc(Cl)cc(C(F)(F)F)c2)c1N [Ex. 47] | 100%
COc1nccnc1-n1nc(C(F)(F)F)c(-c2cc(Br)c3c(c2)OCCO3)c1N [Ex. 132] | 100%
COc1nccnc1-n1nc(C(F)(F)F)c(-c2cc(Cl)c3c(c2)OCCO3)c1N [Ex. 133] | 100%
